Data taken from article PMC8592419 (PLoS ONE, 2021).
Converted amounts (≈) assume the structure as drawn. Read-outs that look alike come from different tables or passages of the source. Where a SMILES comes first, the peptide text is derived from it.

Key:
[1] = tested on: M. abscessus clinical isolate MAB02; experiment: In vitro susceptibility testing (DST), CLSI broth microdilution; format: cell-based, M. abscessus subsp. abscessus; set-up: key to DST profile, interpretation, Day 3 / DST profile, interpretation, Day 5 / DST profile, interpretation, Day 14: S, susceptible; I, intermediate; R, resistant; details: for MIC: Mycobacteroides abscessus
Description: (§1) Drug susceptibility testing (DST) was performed according to the Clinical and Laboratory Standards Institute (CLSI) guidelines M24-A2 [42] using the broth microdilution method to determine the minimum inhibitory concentration (MIC). […] Colonies were grown at an adjusted cell density to a 0.5 McFarland standard and further diluted to 5×10^5 CFU/ml. […] These were then incubated at 37°C for 3, 5 and 14 days. The MIC was defined as the concentration in which no visible growth was observed. The results were interpreted according to the guidelines of CLSI. Inducible resistance was inferred by changes in MIC values from being susceptible at day 3 to resistant at day 14.

[2] = tested on: M. abscessus clinical isolate MAB04; experiment: as above; format: cell-based, M. abscessus subsp. abscessus; set-up: key to DST profile, interpretation, Day 3 / DST profile, interpretation, Day 5 / DST profile, interpretation, Day 14: S, susceptible; I, intermediate; R, resistant; details: for MIC: Mycobacteroides abscessus
Description: as §1

[3] = tested on: M. abscessus clinical isolate MAB06; experiment: as above; format: cell-based, M. abscessus subsp. abscessus; set-up: key to DST profile, interpretation, Day 3 / DST profile, interpretation, Day 5 / DST profile, interpretation, Day 14: S, susceptible; I, intermediate; R, resistant; details: for MIC: Mycobacteroides abscessus
Description: as §1

[4] = tested on: M. abscessus clinical isolate MAB07; experiment: as above; format: cell-based, M. abscessus subsp. abscessus; set-up: key to DST profile, interpretation, Day 3 / DST profile, interpretation, Day 5 / DST profile, interpretation, Day 14: S, susceptible; I, intermediate; R, resistant; details: for MIC: Mycobacteroides abscessus
Description: as §1

[5] = tested on: M. abscessus clinical isolate MAB08; experiment: as above; format: cell-based, M. abscessus subsp. abscessus; set-up: key to DST profile, interpretation, Day 3 / DST profile, interpretation, Day 5 / DST profile, interpretation, Day 14: S, susceptible; I, intermediate; R, resistant; details: for MIC: Mycobacteroides abscessus
Description: as §1

[6] = tested on: M. abscessus clinical isolate MAB09; experiment: as above; format: cell-based, M. abscessus subsp. abscessus; set-up: key to DST profile, interpretation, Day 3 / DST profile, interpretation, Day 5 / DST profile, interpretation, Day 14: S, susceptible; I, intermediate; R, resistant; details: for MIC: Mycobacteroides abscessus
Description: as §1

[7] = tested on: M. abscessus clinical isolate MAB10; experiment: as above; format: cell-based, M. abscessus subsp. abscessus; set-up: key to DST profile, interpretation, Day 3 / DST profile, interpretation, Day 5 / DST profile, interpretation, Day 14: S, susceptible; I, intermediate; R, resistant; details: for MIC: Mycobacteroides abscessus
Description: as §1

[8] = tested on: M. abscessus clinical isolate MAB11; experiment: as above; format: cell-based, M. abscessus subsp. abscessus; set-up: key to DST profile, interpretation, Day 3 / DST profile, interpretation, Day 5 / DST profile, interpretation, Day 14: S, susceptible; I, intermediate; R, resistant; details: for MIC: Mycobacteroides abscessus
Description: as §1

[9] = tested on: M. abscessus clinical isolate MAB12; experiment: as above; format: cell-based, M. abscessus subsp. massiliense; set-up: key to DST profile, interpretation, Day 3 / DST profile, interpretation, Day 5 / DST profile, interpretation, Day 14: S, susceptible; I, intermediate; R, resistant; details: for MIC: Mycobacteroides abscessus
Description: as §1

[10] = tested on: M. abscessus clinical isolate MAB14; experiment: as above; format: cell-based, M. abscessus subsp. massiliense; set-up: key to DST profile, interpretation, Day 3 / DST profile, interpretation, Day 5 / DST profile, interpretation, Day 14: S, susceptible; I, intermediate; R, resistant; details: for MIC: Mycobacteroides abscessus
Description: as §1

[11] = tested on: M. abscessus clinical isolate MAB15; experiment: as above; format: cell-based, M. abscessus subsp. massiliense; set-up: key to DST profile, interpretation, Day 3 / DST profile, interpretation, Day 5 / DST profile, interpretation, Day 14: S, susceptible; I, intermediate; R, resistant; details: for MIC: Mycobacteroides abscessus
Description: as §1

[12] = 72 h, day 3, read-out: DST profile, MIC value, Day 3
[13] = 120 h, day 5, read-out: DST profile, MIC value, Day 5
[14] = 336 h, day 14, read-out: DST profile, MIC value, Day 14

`CC[C@H](C)[C@H](NC(=O)[C@H](CCCCN)NC(=O)[C@H](CCCNC(=N)N)NC(=O)CNC(=O)[C@H](CC(C)C)NC(=O)[C@H](CO)NC(=O)[C@H](CCCNC(=N)N)NC(=O)[C@H](CC(C)C)NC(=O)CNC(=O)CN)C(=O)N[C@@H](CC(C)C)C(=O)N[C@@H](CCCNC(=N)N)C(=O)N[C@@H](C)C(=O)N[C@@H](Cc1c[nH]c2ccccc12)C(=O)N[C@@H](CCCCN)C(=O)N[C@@H](CCCCN)C(=O)N[C@@H](Cc1ccc(O)cc1)C(=O)O` [S61] (H-GGLRSLGRKILRAWKKY-OH) gave an MIC after 3 days, MAB01 and MAB03 of under 50 µg/mL.
In the case of `CC[C@H]1OC(=O)[C@H](C)[C@@H](O[C@H]2C[C@@](C)(OC)[C@@H](O)[C@H](C)O2)[C@H](C)[C@@H](O[C@@H]2O[C@H](C)C[C@H](N(C)C)[C@H]2O)[C@](C)(OC)C[C@@H](C)C(=O)[C@H](C)[C@@H](O)[C@]1(C)O` [CLA, Clarithromycin], the MIC [1, 12] is reported as 1 µg/mL (≈ 1.34 µM), the MIC [1, 13] is reported as 8 µg/mL (≈ 10.7 µM) and the MIC [1, 14] is reported as 64 µg/mL (≈ 85.6 µM). The “DST profile, interpretation, Day 3” value ([1]; day 3, CLSI interpretation) was “S”, the “DST profile, interpretation, Day 5” value ([1]; day 5, CLSI interpretation) was “R” and the “DST profile, interpretation, Day 14” value ([1]; day 14, CLSI interpretation) was “R”. The MIC [2, 12] was 2 µg/mL (≈ 2.67 µM), the MIC [2, 13] was 16 µg/mL (≈ 21.4 µM) and the MIC [2, 14] was 64 µg/mL (≈ 85.6 µM). For the same molecule, the “DST profile, interpretation, Day 3” value ([2]; day 3, CLSI interpretation) was “S”, the “DST profile, interpretation, Day 5” value ([2]; day 5, CLSI interpretation) was “R” and the “DST profile, interpretation, Day 14” value ([2]; day 14, CLSI interpretation) was “R”. The MIC [3, 12] was 0.5 µg/mL (≈ 0.668 µM), the MIC [3, 13] was 2 µg/mL (≈ 2.67 µM) and the MIC [3, 14] was 32 µg/mL (≈ 42.8 µM). The “DST profile, interpretation, Day 3” value ([3]; day 3, CLSI interpretation) was “S”, the “DST profile, interpretation, Day 5” value ([3]; day 5, CLSI interpretation) was “S” and the “DST profile, interpretation, Day 14” value ([3]; day 14, CLSI interpretation) was “R”. For the same molecule, the MIC [4, 12] was 4 µg/mL (≈ 5.35 µM), the MIC [4, 13] was 16 µg/mL (≈ 21.4 µM) and the MIC [4, 14] was 16 µg/mL (≈ 21.4 µM). The “DST profile, interpretation, Day 3” value ([4]; day 3, CLSI interpretation) was “I”, the “DST profile, interpretation, Day 5” value ([4]; day 5, CLSI interpretation) was “R” and the “DST profile, interpretation, Day 14” value ([4]; day 14, CLSI interpretation) was “R”. For the same molecule, the MIC [5, 12] was 1 µg/mL (≈ 1.34 µM), the MIC [5, 13] was 2 µg/mL (≈ 2.67 µM) and the MIC [5, 14] was 8 µg/mL (≈ 10.7 µM). For the same molecule, the “DST profile, interpretation, Day 3” value ([5]; day 3, CLSI interpretation) was “S”, the “DST profile, interpretation, Day 5” value ([5]; day 5, CLSI interpretation) was “S” and the “DST profile, interpretation, Day 14” value ([5]; day 14, CLSI interpretation) was “R”. It also gave an MIC [6, 12] of 0.25 µg/mL (≈ 0.334 µM), an MIC [6, 13] of 8 µg/mL (≈ 10.7 µM) and an MIC [6, 14] of 8 µg/mL (≈ 10.7 µM). The “DST profile, interpretation, Day 3” value ([6]; day 3, CLSI interpretation) was “S”, the “DST profile, interpretation, Day 5” value ([6]; day 5, CLSI interpretation) was “R” and the “DST profile, interpretation, Day 14” value ([6]; day 14, CLSI interpretation) was “R”. The MIC [7, 12] was 1020 µg/mL (≈ 1370 µM), the MIC [7, 13] was 1020 µg/mL (≈ 1370 µM) and the MIC [7, 14] was 1020 µg/mL (≈ 1370 µM). For the same molecule, the “DST profile, interpretation, Day 3” value ([7]; day 3, CLSI interpretation) was “R”, the “DST profile, interpretation, Day 5” value ([7]; day 5, CLSI interpretation) was “R” and the “DST profile, interpretation, Day 14” value ([7]; day 14, CLSI interpretation) was “R”. The MIC [8, 12] was 0.5 µg/mL (≈ 0.668 µM), the MIC [8, 13] was 16 µg/mL (≈ 21.4 µM) and the “DST profile, interpretation, Day 3” value ([8]; day 3, CLSI interpretation) was “S”. For the same molecule, the “DST profile, interpretation, Day 5” value ([8]; day 5, CLSI interpretation) was “R”, the “DST profile, interpretation, Day 14” value ([8]; day 14, CLSI interpretation) was “R” and the MIC [9, 12] was 1020 µg/mL (≈ 1370 µM). For the same molecule, the MIC [9, 13] was 1020 µg/mL (≈ 1370 µM), the MIC [9, 14] was 1020 µg/mL (≈ 1370 µM) and the “DST profile, interpretation, Day 3” value ([9]; day 3, CLSI interpretation) was “R”. For the same molecule, the “DST profile, interpretation, Day 5” value ([9]; day 5, CLSI interpretation) was “R”, the “DST profile, interpretation, Day 14” value ([9]; day 14, CLSI interpretation) was “R” and the MIC [10, 12] was 512 µg/mL (≈ 685 µM). For the same molecule, the MIC [10, 13] was 512 µg/mL (≈ 685 µM), the MIC [10, 14] was 512 µg/mL (≈ 685 µM) and the “DST profile, interpretation, Day 3” value ([10]; day 3, CLSI interpretation) was “R”. For the same molecule, the “DST profile, interpretation, Day 5” value ([10]; day 5, CLSI interpretation) was “R”, the “DST profile, interpretation, Day 14” value ([10]; day 14, CLSI interpretation) was “R” and the MIC [11, 12] was 4 µg/mL (≈ 5.35 µM). For the same molecule, the MIC [11, 13] was 4 µg/mL (≈ 5.35 µM), the MIC [11, 14] was 4 µg/mL (≈ 5.35 µM) and the “DST profile, interpretation, Day 3” value ([11]; day 3, CLSI interpretation) was “I”. For the same molecule, the “DST profile, interpretation, Day 5” value ([11]; day 5, CLSI interpretation) was “I” and the “DST profile, interpretation, Day 14” value ([11]; day 14, CLSI interpretation) was “I”.
